{
  "source": "patent US20220105127A1",
  "about": "“METHODS FOR PROVIDING THE BENEFITS OF METHIONINE RESTRICTION WITHOUT DIETARY RESTRICTION” (priority 2020, published 2022)",
  "key": {"C57BL/6J mice [1]": {"tested_on": "C57BL/6J mice", "assay": "Experiment 1: high-fat diet with selenium compounds, body mass, fat pad and liver mass", "format": "in vivo, mouse", "protocol": "(§1) All animal studies conducted were approved by the Institutional Animal Care and Use Committee (IACUC) of the Orentreich Foundation for the Advancement of Science, Inc. (Permit Number: 0511 MB). C57BL/6J mice (stock number 000664) were purchased from the Jackson Laboratories (Bar Harbor, Me.) and housed in a conventional animal facility maintained at 20±2° C., 50±10% relative humidity, with a 12 hr/12 hr light/dark photoperiod. Food and water were provided ad libitum. Upon arrival, mice were acclimatized for up to one week and fed Purina Lab Chow 5001 (Ralston Purina, Co.; St. Louis, Mo.).\nAt the beginning of the experiment, the mice were divided into 5 groups with each group being fed one of five isocaloric (5.3 kcal/gm) high-fat diets ad libitum for several weeks. Each high-fat diet comprising a base of 12% kcal protein, 31% kcal carbohydrate, and 57% kcal fat. The first group's diet was the control-fed diet and included the base and methionine in an amount that represented about 0.86% of the weight of the food (sometimes referred to as “control group,” “control-fed group,” or “group 1”). The second group's diet was the methionine-restricted group where the base-diet was restricted to 0.12% methionine as a percentage of the total weight of the food (sometimes referred to as “methionine-restricted group” or “group 2”). The third group was fed the base diet containing 0.86% methionine, which was supplemented with sodium selenite in an amount representing 0.0073% of the total weight of the food (sometimes referred to as “sodium selenite-supplemented group” or “group 3”). The fourth group was fed the base diet containing 0.86% methionine, supplemented with 0.0036% selenomethionine, as a percentage of the total food weight (sometimes referred to as “group 4”). The fifth group was fed the base diet containing 0.86% methionine as a percentage of the total weight of the food, supplemented with 0.0073% selenomethionine as a percentage of the total weight of the food (sometimes referred to as “group 5”). Amounts of selenium-containing compounds used for this and subsequent experiments were determined from pilot studies aimed at identifying minimal doses that still achieve high efficacy. […] The amount of selenomethionine administered to the animals in the fourth and fifth groups was approximately 1/200 and 1/100 times respectively, of the levels of sulfur-containing amino acids (i.e., methionine and cysteine) present in the subjects' diets.\nBody mass and food consumption were monitored once a week for sixteen weeks. Prior to blood collection, animals were fasted for 4 hours to establish a physiological baseline. Blood was then collected from the retro-orbital plexus and processed using EDTA-K2-coated blood collection tubes (Milian Dutscher Group; Geneva, Switzerland). The resulting plasma was frozen and stored at −80° C. until used for analysis. A portion of each blood sample was used for blood glucose determination using an Abbott Freestyle Lite glucometer and glucose strips (Abbott Diabetes Care, Inc.; Alameda, Calif.). At the end of each study, animals were fasted and bled, as described above. The mice were then sacrificed, their overall body condition was assessed, and certain physiological parameters were measured. The inguinal and perigonadal fat pads, as well as liver of each mouse, were harvested by surgical resection, weighed, flash frozen, and stored at −80° C."}, "C57BL/6J mice [2]": {"tested_on": "C57BL/6J mice", "assay": "Experiment 3: low-fat diet with selenomethionine, inguinal and perigonadal fat pad weight", "format": "in vivo, mouse", "settings": "male mice, selenomethionine 0.00015% of food, low-fat diet (10% of calories from fat), 8 week interval, p<0.01; even more effectively than methionine restriction", "protocol": "as §1\nIn this experiment, male mice were divided into three groups, with each group being fed a separate low-fat diet ad libitum for 8 weeks. The first group represented the control-fed group (CF group) and was fed a low-fat base diet that included 0.86% methionine as a percentage of total food. The second group was fed a methionine-restricted diet (MR group) where the amount of methionine was restricted to 0.12% of total consumed. The third group was fed the base diet supplemented with selenomethionine (SMS group) in an amount representing 0.00015% of total food consumed.\nFIGS. 9A and 9B depict the reduced white adipose tissue accumulation of the SMS group as compared with the MR group and the CF group. […]"}, "[3]": {"settings": "female mice, high-fat diet, untreated = 100%, sodium selenite 0.0073% of food, selenomethionine 0.0036% or 0.0073% (which not stated)"}, "[4]": {"settings": "male mice, high-fat diet, untreated = 100%, sodium selenite 0.0073% of food, selenomethionine 0.0036% or 0.0073% (which not stated)"}},
  "data": [
    {"smiles": "C[Se]CC[C@H](N)C(=O)O", "note": "[Selenomethionine, selenomethionine]", "values": [
      {"measurement": "Inguinal Fat Mass, Females", "setting": "C57BL/6J mice [1]; [3]", "result": 48, "unit": "%"},
      {"measurement": "Perigonadal Fat Mass, Females", "setting": "C57BL/6J mice [1]; [3]", "result": 55, "unit": "%"},
      {"measurement": "Total Body Mass, Females", "setting": "C57BL/6J mice [1]; female mice, high-fat diet, untreated = 100%, sodium selenite 0.0073% of food, selenomethionine 0.0036% or 0.0073% (which not stated), 16 weeks", "result": 79, "unit": "%"},
      {"measurement": "Inguinal Fat Mass, Males", "setting": "C57BL/6J mice [1]; [4]", "result": 54, "unit": "%"},
      {"measurement": "Perigonadal Fat Mass, Males", "setting": "C57BL/6J mice [1]; [4]", "result": 60, "unit": "%"},
      {"measurement": "Total Body Mass, Males", "setting": "C57BL/6J mice [1]; male mice, high-fat diet, untreated = 100%, sodium selenite 0.0073% of food, selenomethionine 0.0036% or 0.0073% (which not stated), 16 weeks", "result": 84, "unit": "%"},
      {"measurement": "overall body mass / diet-induced obesity", "setting": "C57BL/6J mice [1]; male mice, selenomethionine 0.0036% and 0.0073% of food, high-fat diet, vs control-fed littermates", "result": "dose-dependent protection against diet-induced obesity"},
      {"measurement": "inguinal and perigonadal adipose tissue", "setting": "C57BL/6J mice [1]; male mice, selenomethionine-supplemented high-fat diet", "result": "less inguinal and perigonadal adipose tissue"},
      {"measurement": "liver mass", "setting": "C57BL/6J mice [1]; selenomethionine-supplemented vs control animals, high-fat diet", "result": "not significantly different"},
      {"measurement": "accumulation of inguinal and perigonadal adipose tissue (FIGS. 9A, 9B)", "setting": "C57BL/6J mice [2]", "result": "robust protection against the accumulation of adipose tissue"}
    ]}
  ]
}
